Columns and labels:
[1] = system: gastric (NCI-N87), pancreatic (Capan-1), and breast (MDA-MB-468) human cancer cell lines; test: 4-day MTS assay, potency of the conjugate; type: cell-based; conditions: range over NCI-N87, Capan-1 and MDA-MB-468
Method: Retention of antibody binding was confirmed by cell binding assays comparing binding of the conjugate to unconjugated antibody (Chari, 2008, Acc Chem Res 41:98-107). The potency of the conjugate was tested in a 4-day MTS assay using appropriate target cells.

[2] = serum stability, HIC HPLC; type: in vitro ADME; conditions: human serum, 0.2 mg/mL, 37° C.
Method: Serum stability of prototypical P2PDox conjugate, hRS7-P2PDox, was determined by incubating in human serum at a concentration of 0.2 mg/mL at 37° C.

[3] = tolerability / toxicity of hRS7-P2PDox in mice
Method: Tumor size was determined by caliper measurements of length (L) and width (W) with tumor volume calculated as (L×W^2)/2. Tumors were measured and mice weighed twice a week. Mice were euthanized if their tumors reached >1 cm^3 in size, lost greater than 15% of their starting body weight, or otherwise became moribund. Statistical analysis for the tumor growth data was based on area under the curve (AUC) and survival time. Profiles of individual tumor growth were obtained through linear curve modeling. An f-test was employed to determine equality of variance between groups prior to statistical analysis of growth curves. A two-tailed t-test was used to assess statistical significance between all the various treatment groups and non-specific controls. For the saline control analysis a one-tailed t-test was used to assess significance. Survival studies were analyzed using Kaplan-Meier plots (log-rank analysis), using the Prism GraphPad Software (v4.03) software package (Advanced Graphics Software, Inc.; Encinitas, Calif.). All doses in preclinical experiments are expressed in antibody amounts. In terms of drug, 100 μg of antibody (5 mg/kg) in a 20-g mouse, for example, carries 1.4 μg-2.8 μg ([…]) of P2PDox equivalent dose when using an ADC with 3-6 drugs/IgG.
Using this dosing regimen, we examined the therapeutic effect of hRS7-P2PDox in 2 human tumor xenograft models, Capan-1 (pancreatic cancer) and NCI-N87 (gastric cancer). Therapy began 7 days after tumor transplantation in nude mice.
Conjugates were prepared and evaluated with mean drug/MAb substitution ratios (MSRs) of ˜6:1 and ˜3:1. Groups of normal mice (n=5) were administered, i.v., single doses of unmodified hRS7 or hRS7-P2PDox with drug substitution of 6.8 or 3.7 (same protein dose), and serum samples were collected at 30 min, 4 h, 24 h, 72 h, and 168 h post-injection. These were analyzed by ELISA for antibody concentration.
Anti-TROP-2 antibody conjugate, hRS7-P2PDox, was evaluated in nude mice bearing NCI-N87 human gastric cancer xenografts by administering a single bolus protein dose of 9 mg/kg, 6.75 mg/kg, 4.5 mg/kg, 2.25 mg/kg, or 1 mg/kg. The therapy was started when the mean tumor volume (mTV) was 0.256 cm^3.

[4] = system: Capan-1 human pancreatic adenocarcinoma xenografts; test: therapy of Capan-1 xenografts in nude mice; type: in vivo
Method: FIG. 2. Therapy in nude mice bearing s.c. human tumor xenografts using 2.25 mg/kg protein dose (0.064 mg/kg of drug dose) of MAb-P2PDox conjugates twice weekly×2 weeks in nude mice with Capan-1 human pancreatic adenocarcinoma xenografts (n=5).
Tumors were measured and mice weighed twice a week.
At 63 days after Capan-1 tumor injection (with therapy starting at 1 days post-innoculation), 0 of 10 mice were alive in the saline control, 10 of 10 mice were alive in mice treated twice weekly×2 weeks with 45 μg of hPAM4-P2PDox, 2 of 10 mice were alive in mice treated twice weekly×2 weeks with 45 μg of hA20-P2PDox, 0 of 10 mice were alive in mice treated twice weekly×4 weeks with 250 μg of hPAM4-SN-38, and 0 of 10 mice were alive in mice treated twice weekly×4 weeks with 250 μg of h20-SN-38.

[5] = system: MDA-MB-468 human breast carcinoma xenografts; test: therapy of MDA-MB-468 xenografts in nude mice; type: in vivo
[6] = system: BxPC3 human pancreatic carcinoma xenografts; test: therapy of BxPC3 xenografts in nude mice; type: in vivo
[7] = PK in normal mice, serum antibody by ELISA; type: in vivo; conditions: drug substitution 6.8 or 3.7 vs unmodified hRS7
Method: These were analyzed by ELISA for antibody concentration. […] The PK parameters (Cmax, AUC, etc.) were similar.

[8] = system: Trop-2-positive human pancreatic adenocarcinoma cell line (BxPC-3); test: ADCC with PBMCs, effector to target ratio 100:1; type: cell-based; conditions: 33.3 nM
Method: The ADCC activity of various hRS7-ADC conjugates was determined in comparison to hRS7 IgG (FIG. 17). PBMCs were purified from blood purchased from the Blood Center of New Jersey. A Trop-2-positive human pancreatic adenocarcinoma cell line (BxPC-3) was used as the target cell line with an effector to target ratio of 100:1. ADCC mediated by hRS7 IgG was compared to hRS7-Pro-2-PDox, hRS7-CL2A-SN-38, and the reduced and capped hRS7-NEM. All were used at 33.3 nM.

[9] = system: HIV-1IIIB/MuLV infected splenocytes; test: HIV-1/MuLV infected cell challenge in mice; type: in vivo; conditions: doses of 100-200 μg
Method: P4/D10-P2PDox is tested in vitro for its efficacy in eliminating HIV-1-infected cells among non-infected cells and in a mouse model by removing HIV-1/MuLV (murine leukemia virus) infected syngeneic cells from the intraperitoneal cavity.
A human T-cell line, CEM-1B, with a genetically integrated MuLV genome is infected with HIV-1IIIB, which leads to the production of pseudoviruses with the HIV-1 genome and the MuLV envelope (Adang et al., PNAS USA 1999, 96:12749-753; Hinkula et al., Cells Tissues Organs 2004, 177:169-184). These virus supernatants are used to infect splenocytes from C57B1/6×DBA F1 K^b/d mice transgenic for HLA-A201. Isogenic mice are challenged with HIV-1IIIB/MuLV infected splenocytes i.p. and are immediately given conjugated antibodies or free antibodies i.p. Ten days after challenge, mice are sacrificed and peritoneal cells collected. Peritoneal cells are pelleted and added to 1×10^6 HIV susceptible Jurkat T-cells or human PBMC grown in 24-well plates. From these secondary cultures, supernatant is removed and fresh medium added every 3-4 days. The amount of infectious HIV recovered in the supernatant is measured for 3 weeks by p24 ELISA.
To test the efficacy of P4/D10-P2PDox in vivo, mice are given isogeneic HIV/MuLV-infected cells together with conjugates intraperitoneally.

hRS7-P2PDox
IC50 [1]: 0.35 to 1.09 nM | release of free drug from the conjugate [2]: no release of free drug | toxicity of the three dosage schedules ([3]; 45 μg q4dx4, 90 μg weekly×2, single 180 μg (not shown)): similarly low levels of toxicity | tolerability of 4 doses of 45 μg given in 2 weeks ([3]; 4 doses of 45 μg in 2 weeks): tolerated by all animals | MTD ([3]; single bolus protein dose, nude mice bearing NCI-N87): 9 mg/kg | lethal single i.v. dose ([3]; single i.v. dose, antibody amount [~10 μg of P2PDox]): ≥ 300 µg | established tumors regressed ([4]; 4 doses of 45 μg in 2 weeks, therapy began 7 days after transplantation, no re-growth): 100% | inhibition of tumor growth compared with the SN-38 conjugate of the same antibody ([4]; not shown): more effective at inhibiting tumor growth | antitumor effects ([5]; 2.25 mg/kg protein dose twice weekly×2 weeks): specific and significant antitumor effects | inhibition of growth compared with hRS7-SN-38 ([5]; not shown): slightly more effective | inhibition of growth compared with hRS7-SN-38 ([6]; PxPC-3 pancreatic cancer (not shown)): substantially more effective | antitumor effects ([6]; second pancreatic cancer xenograft, 2.25 mg/kg protein dose twice weekly×2 weeks): specific and significant antitumor effects | PK parameters (Cmax, AUC, etc.) [7]: similar | serum concentrations at various times ([7]; single i.v. dose, 30 min to 168 h): no significant differences in serum concentrations | specific lysis (ADCC) [8]: not significantly different | protection by control conjugates [9]: None of the P2PDox-conjugated control antibodies (hLL1 or hRS7) provide any protection
